Results reported in US8192962B2, “Processes for detecting toxic substances” (Daikin Industries, Ltd., priority 2001, dated 2012).

System: Metabolism protein genes
Assay: DNA chip mRNA expression in yeast, metabolism protein genes (Table 7)
Type: cell-based, Saccharomyces cerevisiae S288C
Outline: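 Value is the scanned fluorescence intensity ratio of exposed versus chemical-free cells. Log-phase S288C yeast in YPD at 25° C. received one toxic substance for two hours, dosed to slow growth without killing; Cy3/Cy5-labeled cDNA from oligo-dT-purified mRNA was hybridized to a whole-genome chip at 65° C.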

CCCCCCCCCCCCOS(=O)(=O)[O-].[Na+] [(18), sodium lauryl sulfate]
The level of expressed mRNA in the presence of chemical substance/The level of expressed mRNA in the absence of chemical substance (yeast gene YAL012W): 0.8 | The level of expressed mRNA in the presence of chemical substance/The level of expressed mRNA in the absence of chemical substance (yeast gene YAL038W): 1.0 | level of expressed mRNA in the presence/in the absence of chemical substance (yeast gene YBR003W): 1.3 | level of expressed mRNA in the presence/in the absence of chemical substance (yeast gene YBR011C): 1.1 | level of expressed mRNA in the presence/in the absence of chemical substance (yeast gene YBR020W): 0.9 | The level of expressed mRNA in the presence of chemical substance/The level of expressed mRNA in the absence of chemical substance (yeast gene YBR023C): 0.9 | The level of expressed mRNA in the presence of chemical substance/The level of expressed mRNA in the absence of chemical substance (yeast gene YBR029C): 0.8 | The level of expressed mRNA in the presence of chemical substance/The level of expressed mRNA in the absence of chemical substance (yeast gene YBR183W): 2.4 | The level of expressed mRNA in the presence of chemical substance/The level of expressed mRNA in the absence of chemical substance (yeast gene YBR222C): 0.9 | The level of expressed mRNA in the presence of chemical substance/The level of expressed mRNA in the absence of chemical substance (yeast gene YBR256C): 3.3 | The level of expressed mRNA in the presence of chemical substance/The level of expressed mRNA in the absence of chemical substance (yeast gene YCL009C): 0.8 | The level of expressed mRNA in the presence of chemical substance/The level of expressed mRNA in the absence of chemical substance (yeast gene YCL064C): 0.3 | level of expressed mRNA in the presence/in the absence of chemical substance (yeast gene YCR010C): 1.5 | level of expressed mRNA in the presence/in the absence of chemical substance (yeast gene YCR034W): 0.7 | The level of expressed mRNA in the presence of chemical substance/The level of expressed mRNA in the absence of chemical substance (yeast gene YCR048W): 0.8 | The level of expressed mRNA in the presence of chemical substance/The level of expressed mRNA in the absence of chemical substance (yeast gene YCR098C): 1.6 | The level of expressed mRNA in the presence of chemical substance/The level of expressed mRNA in the absence of chemical substance (yeast gene YDL174C): 4.0 | The level of expressed mRNA in the presence of chemical substance/The level of expressed mRNA in the absence of chemical substance (yeast gene YDR019C): 1.6 | level of expressed mRNA in the presence/in the absence of chemical substance (yeast gene YDR050C): 2.3 | level of expressed mRNA in the presence/in the absence of chemical substance (yeast gene YDR073W): 2.3 | level of expressed mRNA in the presence/in the absence of chemical substance (yeast gene YDR123C): 1.0 | level of expressed mRNA in the presence/in the absence of chemical substance (yeast gene YDR178W): 2.3 | level of expressed mRNA in the presence/in the absence of chemical substance (yeast gene YDR277C): 1.7 | level of expressed mRNA in the presence/in the absence of chemical substance (yeast gene YDR284C): 1.5 | level of expressed mRNA in the presence/in the absence of chemical substance (yeast gene YDR345C): 1.8 | The level of expressed mRNA in the presence of chemical substance/The level of expressed mRNA in the absence of chemical substance (yeast gene YDR380W): 0.8 | level of expressed mRNA in the presence/in the absence of chemical substance (yeast gene YDR400W): 0.8 | level of expressed mRNA in the presence/in the absence of chemical substance (yeast gene YDR408C): 1.1 | level of expressed mRNA in the presence/in the absence of chemical substance (yeast gene YDR483W): 1.4 | The level of expressed mRNA in the presence of chemical substance/The level of expressed mRNA in the absence of chemical substance (yeast gene YDR497C): 1.8 | The level of expressed mRNA in the presence of chemical substance/The level of expressed mRNA in the absence of chemical substance (yeast gene YDR502C): 0.9 | The level of expressed mRNA in the presence of chemical substance/The level of expressed mRNA in the absence of chemical substance (yeast gene YDR516C): 1.2 | level of expressed mRNA in the presence/in the absence of chemical substance (yeast gene YEL063C): 0.7 | level of expressed mRNA in the presence/in the absence of chemical substance (yeast gene YER015W): 2.6 | The level of expressed mRNA in the presence of chemical substance/The level of expressed mRNA in the absence of chemical substance (yeast gene YER026C): 3.2 | The level of expressed mRNA in the presence of chemical substance/The level of expressed mRNA in the absence of chemical substance (yeast gene YER053C): 2.3 | The level of expressed mRNA in the presence of chemical substance/The level of expressed mRNA in the absence of chemical substance (yeast gene YER069W): 0.9 | level of expressed mRNA in the presence/in the absence of chemical substance (yeast gene YER081W): 1.7 | The level of expressed mRNA in the presence of chemical substance/The level of expressed mRNA in the absence of chemical substance (yeast gene YER096W): 1.2 | level of expressed mRNA in the presence/in the absence of chemical substance (yeast gene YER120W): 1.0 | The level of expressed mRNA in the presence of chemical substance/The level of expressed mRNA in the absence of chemical substance (yeast gene YER178W): 0.9 | level of expressed mRNA in the presence/in the absence of chemical substance (yeast gene YFL011W): 1.0 | The level of expressed mRNA in the presence of chemical substance/The level of expressed mRNA in the absence of chemical substance (yeast gene YFL014W): 8.8 | The level of expressed mRNA in the presence of chemical substance/The level of expressed mRNA in the absence of chemical substance (yeast gene YFL030W): 0.8 | The level of expressed mRNA in the presence of chemical substance/The level of expressed mRNA in the absence of chemical substance (yeast gene YFL031W): 1.1 | The level of expressed mRNA in the presence of chemical substance/The level of expressed mRNA in the absence of chemical substance (yeast gene YFL056C): 1.1 | The level of expressed mRNA in the presence of chemical substance/The level of expressed mRNA in the absence of chemical substance (yeast gene YFL057C): 1.3 | The level of expressed mRNA in the presence of chemical substance/The level of expressed mRNA in the absence of chemical substance (yeast gene YFR047C): 1.6 | level of expressed mRNA in the presence/in the absence of chemical substance (yeast gene YGL012W): 1.1 | The level of expressed mRNA in the presence of chemical substance/The level of expressed mRNA in the absence of chemical substance (yeast gene YGL022W): 0.7 | level of expressed mRNA in the presence/in the absence of chemical substance (yeast gene YGL115W): 1.2 | The level of expressed mRNA in the presence of chemical substance/The level of expressed mRNA in the absence of chemical substance (yeast gene YGL126W): 0.9 | level of expressed mRNA in the presence/in the absence of chemical substance (yeast gene YGL205W): 9.1 | The level of expressed mRNA in the presence of chemical substance/The level of expressed mRNA in the absence of chemical substance (yeast gene YGL209W): 1.5 | The level of expressed mRNA in the presence of chemical substance/The level of expressed mRNA in the absence of chemical substance (yeast gene YGL248W): 1.2 | The level of expressed mRNA in the presence of chemical substance/The level of expressed mRNA in the absence of chemical substance (yeast gene YGR037C): 2.0 | The level of expressed mRNA in the presence of chemical substance/The level of expressed mRNA in the absence of chemical substance (yeast gene YGR055W): 0.7 | level of expressed mRNA in the presence/in the absence of chemical substance (yeast gene YGR096W): 1.0 | level of expressed mRNA in the presence/in the absence of chemical substance (yeast gene YGR191W): 0.8 | The level of expressed mRNA in the presence of chemical substance/The level of expressed mRNA in the absence of chemical substance (yeast gene YGR194C): 2.0 | level of expressed mRNA in the presence/in the absence of chemical substance (yeast gene YGR204W): 0.7 | The level of expressed mRNA in the presence of chemical substance/The level of expressed mRNA in the absence of chemical substance (yeast gene YGR256W): 0.8 | The level of expressed mRNA in the presence of chemical substance/The level of expressed mRNA in the absence of chemical substance (yeast gene YGR282C): 1.5 | level of expressed mRNA in the presence/in the absence of chemical substance (yeast gene YGR288W): 1.3 | level of expressed mRNA in the presence/in the absence of chemical substance (yeast gene YHR025W): 0.6 | The level of expressed mRNA in the presence of chemical substance/The level of expressed mRNA in the absence of chemical substance (yeast gene YHR111W): 1.2 | level of expressed mRNA in the presence/in the absence of chemical substance (yeast gene YHR123W): 1.0 | The level of expressed mRNA in the presence of chemical substance/The level of expressed mRNA in the absence of chemical substance (yeast gene YHR137W): 1.3 | The level of expressed mRNA in the presence of chemical substance/The level of expressed mRNA in the absence of chemical substance (yeast gene YHR174W): 1.2 | The level of expressed mRNA in the presence of chemical substance/The level of expressed mRNA in the absence of chemical substance (yeast gene YHR176W): 1.6 | level of expressed mRNA in the presence/in the absence of chemical substance (yeast gene YHR210C): 1.2 | level of expressed mRNA in the presence/in the absence of chemical substance (yeast gene YIL006W): 0.9 | The level of expressed mRNA in the presence of chemical substance/The level of expressed mRNA in the absence of chemical substance (yeast gene YIL045W): 1.8 | The level of expressed mRNA in the presence of chemical substance/The level of expressed mRNA in the absence of chemical substance (yeast gene YIL107C): 2.0 | The level of expressed mRNA in the presence of chemical substance/The level of expressed mRNA in the absence of chemical substance (yeast gene YIL154C): 1.0 | The level of expressed mRNA in the presence of chemical substance/The level of expressed mRNA in the absence of chemical substance (yeast gene YIL155C): 1.4 | The level of expressed mRNA in the presence of chemical substance/The level of expressed mRNA in the absence of chemical substance (yeast gene YIL167W): 0.8 | The level of expressed mRNA in the presence of chemical substance/The level of expressed mRNA in the absence of chemical substance (yeast gene YIR034C): 1.0 | The level of expressed mRNA in the presence of chemical substance/The level of expressed mRNA in the absence of chemical substance (yeast gene YIR036C): 1.3 | The level of expressed mRNA in the presence of chemical substance/The level of expressed mRNA in the absence of chemical substance (yeast gene YJL031C): 1.9 | The level of expressed mRNA in the presence of chemical substance/The level of expressed mRNA in the absence of chemical substance (yeast gene YJL068C): 1.5 | The level of expressed mRNA in the presence of chemical substance/The level of expressed mRNA in the absence of chemical substance (yeast gene YJL088W): 0.9 | The level of expressed mRNA in the presence of chemical substance/The level of expressed mRNA in the absence of chemical substance (yeast gene YJL099W): 1.6 | level of expressed mRNA in the presence/in the absence of chemical substance (yeast gene YJL121C): 1.0 | The level of expressed mRNA in the presence of chemical substance/The level of expressed mRNA in the absence of chemical substance (yeast gene YJL155C): 3.1 | level of expressed mRNA in the presence/in the absence of chemical substance (yeast gene YJL167W): 2.1 | The level of expressed mRNA in the presence of chemical substance/The level of expressed mRNA in the absence of chemical substance (yeast gene YJL172W): 1.8 | level of expressed mRNA in the presence/in the absence of chemical substance (yeast gene YJL216C): 2.0 | The level of expressed mRNA in the presence of chemical substance/The level of expressed mRNA in the absence of chemical substance (yeast gene YJL219W): 1.2 | level of expressed mRNA in the presence/in the absence of chemical substance (yeast gene YJR077C): 0.8 | The level of expressed mRNA in the presence of chemical substance/The level of expressed mRNA in the absence of chemical substance (yeast gene YJR137C): 0.8 | level of expressed mRNA in the presence/in the absence of chemical substance (yeast gene YJR143C): 0.8 | The level of expressed mRNA in the presence of chemical substance/The level of expressed mRNA in the absence of chemical substance (yeast gene YJR148W): 1.7 | The level of expressed mRNA in the presence of chemical substance/The level of expressed mRNA in the absence of chemical substance (yeast gene YJR155W): 1.4
